According to US20180098970A1, “USE OF […] THE TREATMENT OF NEURO[…]” (Afecta Pharmaceuticals, Inc., priority 2008, published 2018):
Read-outs that look alike come from different tables or passages of the source.

Assays:
[1] = molecular target: T1, hSERT (Homo sapiens, UniProt P31645); assay: competition binding assay, recombinant human SERT in HEK-293 cell membranes
T1 construct: expressed in transfected cells; host or cells: HEK-293 (HEK-hSERT), membranes
Description: (§1) These transporters control the amount of the three monoamines in the TMMS and therefore regulate fast excitatory and inhibitory neurotransmission in the CNS. Thus, the relative amounts of all three of these monoamines in the TMMS of brain controls mammalian neurobehaviors. To determine the Ki of the representative compounds; recombinant human monoamine transporters (DAT, SERT and NET) were expressed in HEK-293 cells as described in Eshleman et al. (1999). The HEK-hDAT, HEK-hSERT and HEK-hNET cells were incubated in modified Eagle's medium or Dulbecco's modified Eagle's medium exactly as described by Eshleman et al. Cells were grown until confluent on 150 mm diameter tissue culture dishes in a humidified 10% CO2 environment at 37° C. […] Paroxetine (SERT), [125sup I] RTI-55 binding (DAT) and (NET). The binding assays contained an aliquot of membranes prepared from the HEK cell lines expressing the recombinant human transporters (≈12-30 μg protein, depending on the cell line, adjusted to bind <10% of the total radioactivity added to the assay), [125supI] RTI-55 (0.2 nM final concentration) or [3supH] Paroxetine (0.4 nM final concentration) along with Krebs-HEPES assay buffer to yield a final volume of 250 μL. Specific binding was defined as the difference in binding observed in the presence and absence of 10 μM nomifensine (HEK-hDAT), 10 uM desipramine HEK-NET) or 10 μM imipramine (HEK-hSERT). The reaction was incubated for 90 min at room temperature in the dark and was terminated by vacuum filtration. Competition experiments were conducted with duplicate determinations.

[2] = molecular target: T2, hNET (Homo sapiens, UniProt P23975); assay: competition binding assay, recombinant human NET in HEK-293 cell membranes
T2 construct: expressed in transfected cells; host or cells: HEK-293 (HEK-hNET), membranes
T2 sequence (P23975 whole entry): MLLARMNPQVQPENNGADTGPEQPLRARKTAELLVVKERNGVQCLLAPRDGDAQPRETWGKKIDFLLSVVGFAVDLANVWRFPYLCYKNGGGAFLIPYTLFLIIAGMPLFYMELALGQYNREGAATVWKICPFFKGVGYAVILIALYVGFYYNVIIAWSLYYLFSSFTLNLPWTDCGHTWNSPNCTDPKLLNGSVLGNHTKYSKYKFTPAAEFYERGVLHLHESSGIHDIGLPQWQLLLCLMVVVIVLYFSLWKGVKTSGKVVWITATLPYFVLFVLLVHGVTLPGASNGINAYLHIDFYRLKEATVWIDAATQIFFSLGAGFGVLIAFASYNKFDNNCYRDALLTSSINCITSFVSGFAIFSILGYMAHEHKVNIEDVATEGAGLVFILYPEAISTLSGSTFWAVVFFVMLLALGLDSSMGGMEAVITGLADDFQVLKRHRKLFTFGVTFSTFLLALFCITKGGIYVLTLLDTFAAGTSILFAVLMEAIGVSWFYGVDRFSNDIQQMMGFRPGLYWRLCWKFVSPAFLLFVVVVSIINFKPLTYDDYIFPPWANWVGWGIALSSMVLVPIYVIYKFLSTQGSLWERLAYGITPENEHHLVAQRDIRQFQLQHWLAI
Description: as §1

[3] = molecular target: T3, hDAT (Homo sapiens, UniProt Q01959); assay: competition binding assay, recombinant human DAT in HEK-293 cell membranes; conditions: [125I]RTI-55 0.2 nM, ± mean standard error, 3 trials, read-out: Inhibition of binding at human monoamine transporters (Ki) hDAT
T3 construct: expressed in transfected cells; host or cells: HEK-293 (HEK-hDAT), membranes
T3 sequence (Q01959 whole entry): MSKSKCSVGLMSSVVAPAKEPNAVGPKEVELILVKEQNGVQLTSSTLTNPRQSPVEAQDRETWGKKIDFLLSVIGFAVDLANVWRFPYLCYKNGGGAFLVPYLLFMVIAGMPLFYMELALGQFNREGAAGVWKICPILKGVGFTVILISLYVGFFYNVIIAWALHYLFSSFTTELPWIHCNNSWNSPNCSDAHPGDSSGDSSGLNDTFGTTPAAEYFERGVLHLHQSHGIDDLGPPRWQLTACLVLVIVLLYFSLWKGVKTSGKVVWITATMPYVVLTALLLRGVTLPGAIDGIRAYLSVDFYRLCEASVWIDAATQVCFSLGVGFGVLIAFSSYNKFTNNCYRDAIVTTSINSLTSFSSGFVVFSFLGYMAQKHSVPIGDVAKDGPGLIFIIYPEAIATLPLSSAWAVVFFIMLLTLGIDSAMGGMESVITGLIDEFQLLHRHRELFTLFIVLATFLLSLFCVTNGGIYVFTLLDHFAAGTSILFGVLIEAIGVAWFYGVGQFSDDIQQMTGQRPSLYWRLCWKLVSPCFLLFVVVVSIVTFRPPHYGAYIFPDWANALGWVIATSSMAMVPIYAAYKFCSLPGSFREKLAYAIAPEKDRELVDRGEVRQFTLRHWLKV
Description: as §1

[4] = system: symptoms of ADHD; assay: clinical case study, ADHD (Example 3); assay type: in vivo, human
Description: patient two is a person. […], they were also being treated with risperidone which continued for 2 years. […] Subsequently, the risperidone was then completely discontinued without any recurrence of symptoms of ADHD (i.e. poor attention span, hyperactivity, or inappropriate behavior).

[5] = system: Tourette syndrome; assay: clinical case study, Tourette syndrome with ADHD (Example 4); assay type: in vivo, human; conditions: patient, Mazindol 7.5 mg per day started
Method: patient one is a person. They began to have constant vocal tics. Motor tics started […], consisting of licking their lips, rolling their eyes, hand and foot tics. They were diagnosed as having Tourette syndrome. […], the major problems were with their tics, outbursts and lack of control. Despite treatment with methylphenidate 20 mg twice a day (bid), haloperidol 0.5 mg and paroxetine 10 mg, they were in special school and was suffering from uncountable motor and vocal tics everyday during waking hours and with outbursts of shouting, coprolalia and episodes of self-mutilation. coprolabia, lying, hitting things and people, and extremely oppositional.

[6] = system: chronic fatigue syndrome; assay: clinical case study, chronic fatigue syndrome (Example 5); assay type: in vivo, human; conditions: person, Mazindol 5.0 mg per day, after 10 days of therapy
Description: P. C. a person had suffered from chronic fatigue syndrome, “chemical sensitivity and for one year with marked fatigue each day beginning in the early or mid afternoon. There has been some accompanying muscle aching, but no symptoms of central neurosystem involvement. Their functioning at work and at home had been seriously impaired. EBV titers were positive.

[7] = system: reward deficiency disorder; assay: clinical case study, reward deficiency disorder (Example 6); assay type: in vivo, human; conditions: person, Mazindol 2 mg BID, over several weeks
Description: W. K. a person had suffered from alcohol abuse, sexual addiction and pathologic gambling for 10 years. They had been in counseling, Alcoholic Anonymous, Gamblers Anonymous on and off over the past 10 years with minimal effects. They had lost their marriage and several jobs as result of their behavioral problems. They had been treated with antidepressants, but they had been of little help. […] In addition, they reported that the thrill they have always gotten from gambling was no long present and they no longer felt compulsion to gamble.

[8] = system: dementia; assay: clinical case study, dementia with motor impairment (Example 7); assay type: in vivo, human; conditions: person, Mazindol 8 mg per day, after 2 weeks of treatment
Description: R 0 is a person had suffered from motor impairment and cognitive decline. They developed frank dementia and required institutionalization and nursing care. […] Based on reports by their care givers their became more aware of surrounding and was able to recognize family member for the first time in one year and was not “hearing and seeing things that were not there”.

[9] = system: obsessive compulsive behavior; assay: clinical case study, obsessive compulsive behavior (Example 8); assay type: in vivo, human; conditions: person, Mazindol 5 mg per day
Description: patient five is a person who developed compulsive behaviors after the birth of their first child. […] They washed all food even if it had been pre-packaged and placed in specific foods in specific locations in their pantry and refrigerator which they were sure were the “safest: They wore gloves when they left the house and made […] children do so as well. They sprayed disinfectant on everything […] or […] children came in contact with and refused in eat in restaurants. Prior to their pregnancy they had been diagnosed with polycystic ovary disease and need treatment in order to conceive. They were told that they were also “borderline diabetic”. […] Shortly, after beginning their therapy they reported that “mood was better” and they didn't “feel anxious” about bacteria anymore. After three weeks of therapy with Mazindol they stopped wearing gloves (and forcing […] children to do so) and using disinfectant. Their spouse reported that they were a “new […]” and they were no allowed to put the groceries away without having to place it in particular places.

[10] = [3H]Paroxetine 0.4 nM, HEK-hSERT membranes, ± mean standard error, 3 trials, read-out: Inhibition of binding at human monoamine transporters (Ki) hSERT
[11] = [125I]RTI-55 0.2 nM, HEK-hNET membranes, ± mean standard error, 3 trials, read-out: Inhibition of binding at human monoamine transporters (Ki) hNET

T1 sequence (P31645 whole entry): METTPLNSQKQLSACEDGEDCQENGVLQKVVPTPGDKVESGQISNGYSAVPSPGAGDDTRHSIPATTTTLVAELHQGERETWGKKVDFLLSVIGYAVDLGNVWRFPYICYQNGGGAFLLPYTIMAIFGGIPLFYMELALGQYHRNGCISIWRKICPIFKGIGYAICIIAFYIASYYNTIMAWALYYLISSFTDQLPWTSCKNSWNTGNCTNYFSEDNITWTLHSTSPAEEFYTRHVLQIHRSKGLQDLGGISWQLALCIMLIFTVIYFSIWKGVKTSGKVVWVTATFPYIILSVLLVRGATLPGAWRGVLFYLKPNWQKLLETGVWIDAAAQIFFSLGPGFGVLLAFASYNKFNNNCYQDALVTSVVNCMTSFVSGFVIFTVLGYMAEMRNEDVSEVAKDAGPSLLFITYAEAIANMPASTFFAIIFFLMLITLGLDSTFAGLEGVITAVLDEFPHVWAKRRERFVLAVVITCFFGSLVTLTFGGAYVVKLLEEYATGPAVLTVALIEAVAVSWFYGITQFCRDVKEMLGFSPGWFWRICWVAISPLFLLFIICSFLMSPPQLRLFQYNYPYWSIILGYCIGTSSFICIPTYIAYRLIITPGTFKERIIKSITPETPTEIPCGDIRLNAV

Structure (SMILES): OC1(c2ccc(Cl)c(Cl)c2)c2ccccc2C2=NCCN21 (stereo not drawn) [Cpd 1, 5-(3,4-dichlorophenyl)-2,5-dihydro-5H-imidazo(2,1-a)isoindol-5-ol]
- Ki [1, 10]: 0.101 ± 0.0079 µM
- Ki [2, 11]: 0.363 ± 0.041 µM
- Ki [3]: 0.025 ± 0.0048 µM

Structure (SMILES): Clc1ccc(C2c3ccccc3C3=NCCN32)cc1 (stereo not drawn) [Cpd 2, 5-(4-Chlorophenyl)-2,5-dihydro-5H-imidazo(2,1-a)is oindole]
- Ki [1, 10]: 0.014 ± 0.005 µM
- Ki [2, 11]: 0.056 ± 0.019 µM
- Ki [3]: 0.045 ± 0.011 µM

Structure (SMILES): Clc1ccc(C2c3ccccc3C3=NCCN32)cc1 (stereo not drawn) [Cpd 3, 5-(4-Chlorophenyl)-2,3-dihydro-5H-imidazo (2,1-a)is oindole]
- Ki [1, 10]: 0.312 ± 0.045 µM
- Ki [2, 11]: 0.089 ± 0.018 µM
- Ki [3]: 0.111 ± 0.0073 µM

Structure (SMILES): OC1(c2ccc(Cl)cc2)c2ccccc2C2=NCCN21 (stereo not drawn) [mazindol, 5-(4-Chlorophenyl)-2,5-dihydro-5H-imidazo(2,1-a)is oindol-5-ol]
- Ki [1]: 0.056 ± 0.009 µM
- Ki [2]: 0.024 ± 0.002 µM
- recurrence of ADHD symptoms on maintenance ([4]; Mazindol 2.5 mg/day as sole agent, over the next 3 years): without the return of any symptoms of ADHD
- clinical response of ADHD symptoms ([4]; patient, Mazindol 2.5 mg BID started, within 2 months): improved attention span, loss of hyperactivity
- clinical response of tics, outbursts and related symptoms [5]: significant improvement in these symptoms
- clinical response of fatigue and muscle ache [6]: complete relief of their fatigue and muscle ache symptoms
- clinical response of drinking and gambling behavior [7]: able to completely stop drinking after 5 weeks
- clinical response of motor function and dementia [8]: improvement of their motor function, and their dementia
- clinical response of obsessive compulsive behavior [9]: relief of their obsessive compulsive behavior
